Data: US6472348B1, “Pyridone derivatives and herbicides” (Kumiai Chemical Industry Co., Ltd., priority 1996, dated 2002)

What was measured:
Assay type in all cases: in vivo
bulrush (Sc) = assay: Test Example 1: herbicidal effects by paddy field soil treatment; details: 100 g of the active ingredient per 10 ares, 21st day after the application, index 0-5 of Table 47;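 further: grade of growth control; 5 = at least 90%; 4 = 70 to 90%; 3 = 50 to 70%; 2 = 30 to 50%; 1 = 10 to 30%; 0 = under 10%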
In short: (§1)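 Scoring of herbicidal effect came 21 days after application of 100 g active ingredient per 10 ares to flooded (3 cm) paddy-soil pots sown with barnyardgrass, monochoria and bulrush, kept in a greenhouse.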

barnyardgrass (Ec) [1] = assay: as above; details: 100 g of the active ingredient per 10 ares, 21st day after the application, index 0-5 of Table 47
In short: as §1

monochoria (Mo) = assay: as above; details: 100 g of the active ingredient per 10 ares, 21st day after the application, index 0-5 of Table 47;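 further: grade of growth control; 5 = at least 90%; 4 = 70 to 90%; 3 = 50 to 70%; 2 = 30 to 50%; 1 = 10 to 30%; 0 = under 10%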
In short: as §1

Digitaria ciliaris (Di) = assay: Test Example 2: herbicidal effects by upland field soil treatment; details: 100 g of the active ingredient per 10 ares, 21st day after the application, index 0-5 of Table 47;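 further: grade of growth control; 5 = at least 90%; 4 = 70 to 90%; 3 = 50 to 70%; 2 = 30 to 50%; 1 = 10 to 30%; 0 = under 10%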
From the text: (§2) (Test on Herbicidal Effects by Upland Field Soil Treatment)

barnyardgrass (Ec) [2] = assay: as above; details: 100 g of the active ingredient per 10 ares, 21st day after the application, index 0-5 of Table 47
From the text: as §2

pale smartweed (Po) [3] = assay: as above; details: 100 g of the active ingredient per 10 ares, 21st day after the application, index 0-5 of Table 47
From the text: as §2

slender amaranth (Am) [4] = assay: as above; details: 100 g of the active ingredient per 10 ares, 21st day after the application, index 0-5 of Table 47
From the text: as §2

rice flatsedge (Ci) [5] = assay: as above; details: 100 g of the active ingredient per 10 ares, 21st day after the application, index 0-5 of Table 47
From the text: as §2

[6] = tested on: common lambsquarters (Ch); assay: as above; details: 100 g of the active ingredient per 10 ares, 21st day after the application, index 0-5 of Table 47
From the text: as §2

Diaitaria ciliaris (Di) = assay: Test Example 3: herbicidal effects by upland field foliage treatment; set-up: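 grade of growth control; 5 = at least 90%; 4 = 70 to 90%; 3 = 50 to 70%; 2 = 30 to 50%; 1 = 10 to 30%; 0 = under 10%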; details: 100 g of the active ingredient per 10 ares, evaluated on the 14th day after treatment
In short: (§3)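 Weeds were sown in sand-filled pots (surface area: 120 cm^2), covered with soil and grown in a greenhouse for 2 weeks before foliar treatment. Plants then stayed in the greenhouse, and herbicidal effect was scored against graded standards on the 14th day after treatment.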

barnyardgrass (Ec) [7] = assay: as above; set-up: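 grade of growth control; 5 = at least 90%; 4 = 70 to 90%; 3 = 50 to 70%; 2 = 30 to 50%; 1 = 10 to 30%; 0 = under 10%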; details: 100 g of the active ingredient per 10 ares, evaluated on the 14th day after treatment
In short: as §3

pale smartweed (Po) [8] = assay: as above; set-up: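 grade of growth control; 5 = at least 90%; 4 = 70 to 90%; 3 = 50 to 70%; 2 = 30 to 50%; 1 = 10 to 30%; 0 = under 10%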; details: 100 g of the active ingredient per 10 ares, evaluated on the 14th day after treatment
In short: as §3

slender amaranth (Am) [9] = assay: as above; set-up: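 grade of growth control; 5 = at least 90%; 4 = 70 to 90%; 3 = 50 to 70%; 2 = 30 to 50%; 1 = 10 to 30%; 0 = under 10%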; details: 100 g of the active ingredient per 10 ares, evaluated on the 14th day after treatment
In short: as §3

rice flatsedge (Ci) [10] = assay: as above; set-up: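 grade of growth control; 5 = at least 90%; 4 = 70 to 90%; 3 = 50 to 70%; 2 = 30 to 50%; 1 = 10 to 30%; 0 = under 10%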; details: 100 g of the active ingredient per 10 ares, evaluated on the 14th day after treatment
In short: as §3

[11] = tested on: common lambsquarters (Ch); assay: as above; set-up: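 grade of growth control; 5 = at least 90%; 4 = 70 to 90%; 3 = 50 to 70%; 2 = 30 to 50%; 1 = 10 to 30%; 0 = under 10%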; details: 100 g of the active ingredient per 10 ares, evaluated on the 14th day after treatment
In short: as §3

| Compound | Herbicidal effects Sc (bulrush (Sc)) | Herbicidal effects Ec (barnyardgrass (Ec) [1]) | Herbicidal effects Mo (monochoria (Mo)) | Herbicidal effects Di (Digitaria ciliaris (Di)) | Herbicidal effects Ec (barnyardgrass (Ec) [2]) | Herbicidal effects Po (pale smartweed (Po) [3]) | Herbicidal effects Am (slender amaranth (Am) [4]) | Herbicidal effects Ci (rice flatsedge (Ci) [5]) | Herbicidal effects Ch [6] | Herbicidal effects Di (Diaitaria ciliaris (Di)) | Herbicidal effects Ec (barnyardgrass (Ec) [7]) | Herbicidal effects Po (pale smartweed (Po) [8]) | Herbicidal effects Am (slender amaranth (Am) [9]) | Herbicidal effects Ci (rice flatsedge (Ci) [10]) | Herbicidal effects Ch [11] |
| --- | --- | --- | --- | --- | --- | --- | --- | --- | --- | --- | --- | --- | --- | --- | --- |
| CC(C)Oc1cc(-c2ccc(C(F)(F)F)n(C)c2=O)c(Cl)cc1Cl [1-29] | 5 | 5 | 5 | 5 | 5 | 5 | 5 | 5 | 5 | 5 | 5 | 5 | 5 | 5 | 5 |
| C=CCOc1cc(-c2ccc(C(F)(F)F)n(C)c2=O)c(Cl)cc1Cl [1-32] | 5 | 5 | 5 | 5 | 5 | 5 | 5 | 5 | 5 | 5 | 5 | 5 | 5 | 5 | 5 |
| CC(C)Sc1cc(-c2ccc(C(F)(F)F)n(C)c2=O)c(Cl)cc1Cl [1-51] | 5 | 5 | 5 | 5 | 4 | 5 | 5 | 5 | 5 | 5 | 4 | 5 | 5 | 5 | 5 |
| CCS(=O)(=O)Nc1cc(-c2ccc(C(F)(F)F)n(C)c2=O)c(F)cc1Cl [1-61] | 5 | 5 | 5 | 5 | 5 | 5 | 5 | 5 | 5 | 5 | 5 | 5 | 5 | 5 | 5 |
| CCOC(=O)C(C)Nc1cc(-c2ccc(C(F)(F)F)n(C)c2=O)c(F)cc1Cl (stereo not drawn) [1-64] | 5 | 5 | 5 | 5 | 5 | 5 | 5 | 5 | 5 | 5 | 5 | 5 | 5 | 5 | 5 |
| CCSC(=O)c1cc(-c2ccc(C(F)(F)F)n(C)c2=O)c(F)cc1Cl [1-67] | 5 | 5 | 5 | 5 | 5 | 5 | 5 | 5 | 5 | 5 | 5 | 5 | 5 | 5 | 5 |
| C=CCOc1cc(-c2cc(C)c(C(F)(F)F)n(C)c2=O)c(F)cc1Cl [1-77] | 5 | 5 | 5 | 5 | 5 | 5 | 5 | 5 | 5 | 5 | 5 | 5 | 5 | 5 | 5 |
| C#CC(C)Oc1cc(-c2cc(C)c(C(F)(F)F)n(C)c2=O)c(F)cc1Cl (stereo not drawn) [1-78] | 5 | 5 | 5 | 5 | 5 | 5 | 5 | 5 | 5 | 5 | 5 | 5 | 5 | 5 | 5 |
| Cc1cc(-c2cc(OC(C)C)c(Cl)cc2F)c(=O)n(C)c1C(F)(F)F [1-80] | 5 | 5 | 5 | 5 | 5 | 5 | 5 | 5 | 5 | 5 | 5 | 5 | 5 | 5 | 5 |
| COC(=O)COc1cc(-c2ccc(C(F)(F)F)n(C)c2=O)c(F)cc1Cl [1-99] | 5 | 5 | 5 | 5 | 5 | 5 | 5 | 5 | 5 | 5 | 5 | 5 | 5 | 5 | 5 |
| Cn1c(C(F)(F)F)ccc(-c2cc(OCC(=O)OC3CCCC3)c(Cl)cc2F)c1=O [1-102] | 5 | 5 | 5 | 5 | 5 | 4 | 5 | 5 | 5 | 5 | 5 | 5 | 5 | 5 | 5 |
| CCCOC(=O)COc1cc(-c2ccc(C(F)(F)F)n(C)c2=O)c(F)cc1Cl [1-104] | 5 | 5 | 5 | 5 | 5 | 5 | 5 | 5 | 5 | 5 | 5 | 5 | 5 | 5 | 5 |
| Cn1c(C(F)(F)F)ccc(-c2cc(OCC(=O)O)c(Cl)cc2F)c1=O [1-105] | 5 | 5 | 5 | 5 | 5 | 5 | 5 | 5 | 5 | 5 | 5 | 5 | 5 | 5 | 5 |
